Test results as given in article PMC3681751, “Identification of a Novel Antimicrobial Peptide from Human Hepatitis B Virus Core Protein Arginine-Rich Domain (ARD)” (PLoS Pathogens, 2013).
Like-named read-outs stand apart in the source and are kept apart here. Residues, ends and D or L forms follow the SMILES beside them.

Assays:
[1] = test system: P. aeruginosa; assay: SYTOX Green uptake (membrane permeabilization); assay type: cell-based, Pseudomonas aeruginosa; conditions: 2 µM peptide; 10^7 CFU, 1 µM SYTOX Green, 37°C, ex 485 nm/em 520 nm
Method: (§1) Briefly, bacteria (10^7 CFU) were prepared and mixed with 1 µM SYTOX Green (Invitrogen) for 15 minutes in the dark. […] Melittin (Sigma), the major toxin of bee venom, was used as a positive control to provide maximal permeabilization.

[2] = test system: E. coli; assay: Killing kinetics; assay type: cell-based, Escherichia coli; conditions: 4 µM peptide (1×MBC), 37°C, triplicates
Method: (§2) For measurement of killing kinetics, bacteria and peptides were prepared as described above. Fifty µl of bacteria were mixed with fifty µl of peptides at the concentrations corresponding to MBC and were incubated at 37°C. At the indicated time, bacteria were serially diluted and placed on Mueller-Hinton broth agar plates for the viability measurement.

[3] = test system: human red blood cells (hRBCs); assay: Hemolytic activity; assay type: cell-based; conditions: 10% hRBCs in PBS, 1 h at 37°C, absorbance 405 nm; 100% = 1% Triton X-100; triplicates
Method: The hemolytic activities of peptides were determined by hemolysis against human red blood cells (hRBCs). Human blood was obtained in EDTA-containing tube and was centrifuged at 450 g for 10 min. The pellet was washed three times with PBS buffer, and a solution of 10% hRBCs was prepared. hRBCs solution was mixed with serial dilutions of peptides in PBS buffer, and the reaction mixtures were incubated for 1 h at 37°C. After centrifugation at 450 g for 10 min, the percentage of hemolysis was determined by measuring the absorbance at the wavelength of 405 nm of the supernatant. Blank and 100% hemolysis were determined in PBS buffer and in the presence of 1% Triton X-100, respectively.

[4] = test system: E. coli (ATCC 25922); assay type: cell-based, Escherichia coli; conditions: 3 h at 37°C in phosphate buffer pH 7.2; triplicate
Outline: (§3)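 Peptides were incubated with buffer-suspended bacteria (10^6 CFU/ml) for 3 hours at 37°C, then cells were plated overnight to find the MBC.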

[5] = test system: P. aeruginosa (ATCC 9027); assay type: cell-based, Pseudomonas aeruginosa
Outline: as §3

[6] = test system: P. aeruginosa (ATCC 27853); assay type: cell-based, Pseudomonas aeruginosa
Outline: as §3

[7] = test system: Klebsiella pneumoniae Xen39; assay: IVIS imaging of infected mice; assay type: in vivo; conditions: 10 mg/kg at 1 hour, imaged 4 hours post-inoculation; 10^7 cfu/mouse; n = 5; P<0.01 vs PBS
[8] = test system: S. aureus; assay: Killing kinetics; assay type: cell-based, Staphylococcus aureus; conditions: 4 µM peptide (1×MBC), 37°C, triplicates
Method: as §2

[9] = test system: P. aeruginosa; assay: Effect of added LPS on bactericidal activity; assay type: cell-based, Pseudomonas aeruginosa; conditions: 2 µM peptide (1×MBC), LPS from P. aeruginosa or E. coli at 50 µg/ml, 3 hours, triplicates
Method: To determine whether LPS of Gram-negative bacteria could serve as a potential target of HBc147-183, LPS (0.05 to 50 µg/ml) from either P. aeruginosa or E. coli (Sigma) were incubated with both P. aeruginosa and 2 µM HBc147-183 for three hours, respectively. […] In addition, HBc147-183 preferentially bound to the LPS from P. aeruginosa, rather than that from E. coli. However, the addition of anti-LPS antibody (Genetex Co.) cannot sufficiently neutralize the bactericidal activity of HBc147-183 (Figure 5). […] Alternatively, HBc147-183 and the anti-LPS polyclonal antibody used here could bind predominantly to two different epitopes on the LPS.
Figure 5 Dose response effects of LPS and LPS antibody (triangle) on the bactericidal activity of HBc147-183. LPS from P. aeruginosa (square) and E. coli (diamond), and LPS antibody (triangle) were mixed with P. aeruginosa and HBc147-183 (1×MBC) for 3 hours. The bacteria were then plated on MH agar for the measurement of viability. Samples were measured in triplicates.

[10] = test system: S. aureus; assay: SYTOX Green uptake (membrane permeabilization); assay type: cell-based, Staphylococcus aureus; conditions: 4 µM peptide; 10^7 CFU, 1 µM SYTOX Green, 37°C
Method: as §1

[11] = ampicillin-resistant strain, 3 h at 37°C in phosphate buffer pH 7.2, triplicate

`CC(C)[C@H](NC(=O)[C@@H](NC(=O)[C@@H](N)[C@@H](C)O)C(C)C)C(=O)N[C@@H](CCCNC(=N)N)C(=O)N[C@@H](CCCNC(=N)N)C(=O)N[C@@H](CCCNC(=N)N)C(=O)NCC(=O)N[C@@H](CCCNC(=N)N)C(=O)N[C@@H](CO)C(=O)N1CCC[C@H]1C(=O)N[C@@H](CCCNC(=N)N)C(=O)N[C@@H](CCCNC(=N)N)C(=O)N[C@@H](CCCNC(=N)N)C(=O)N[C@H](C(=O)N1CCC[C@H]1C(=O)N[C@@H](CO)C(=O)N1CCC[C@H]1C(=O)N[C@@H](CCCNC(=N)N)C(=O)N[C@@H](CCCNC(=N)N)C(=O)N[C@@H](CCCNC(=N)N)C(=O)N[C@@H](CCCNC(=N)N)C(=O)N[C@@H](CO)C(=O)N[C@@H](CCC(N)=O)C(=O)N[C@@H](CO)C(=O)N1CCC[C@H]1C(=O)N[C@@H](CCCNC(=N)N)C(=O)N[C@@H](CCCNC(=N)N)C(=O)N[C@@H](CCCNC(=N)N)C(=O)N[C@@H](CCCNC(=N)N)C(=O)N[C@@H](CO)C(=O)N[C@@H](CCC(N)=O)C(=O)N[C@@H](CO)C(=O)N[C@@H](CCCNC(=N)N)C(=O)N[C@@H](CCC(=O)O)C(=O)N[C@@H](CO)C(=O)N[C@@H](CCC(N)=O)C(=O)N[C@@H](CS)C(=O)O)[C@@H](C)O` [HBc147-183] (H-TVVRRRGRSPRRRTPSPRRRRSQSPRRRRSQSRESQC-OH; N-terminus and C-terminus assumed) was tested, and the “Membrane permeabilization (SYTOX Green uptake)” value [1] was “significant degree of membrane permeabilization”, the “Time to complete killing” value [2] was 180 min and the Hemolysis [3] was “no detectable hemolysis”. For the same molecule, the “Antimicrobial activity, MBC” value [4] was 18.36 µg/mL, the “MBC against P. aeruginosa” value ([5]; ATCC 9027, 3 h) was “lower than 4 µM” and the “Antimicrobial activity, MBC” value ([5]; ATCC 9027, 3 h, pH 7.2) was 2 µM. The “Antimicrobial activity, MBC” value [5, 11] was 9.18 µg/mL, the “Antimicrobial activity, MBC” value ([6]; ATCC 27853, 3 h, pH 7.2) was 2 to 4 µM and the “Antimicrobial activity, MBC” value [6, 11] was 9.18 to 18.36 µg/mL. For the same molecule, the “Bioluminescence of infected mice” value [7] was “very weak”, the “Time to complete killing” value [8] was 120 min and the “Bactericidal activity in the presence of LPS” value [9] was “significantly reduced”. For the same molecule, the “Membrane permeabilization (SYTOX Green uptake)” value [10] was “not able to induce membrane permeabilization”.
